Laboratory results published in paper PMC7490411 (Signal Transduction and Targeted Therapy, 2020).

Key:
SGK = experiment: KINOMEscan; format: binding; conditions: 1000 nM
FGR = experiment: KINOMEscan; format: binding; conditions: 1000 nM
AMPK-alpha1 = experiment: KINOMEscan; format: binding; conditions: 1000 nM
LZK = experiment: KINOMEscan; format: binding; conditions: 1000 nM
PIK3C2G = experiment: KINOMEscan; format: binding; conditions: 1000 nM
FLT4 = experiment: KINOMEscan; format: binding; conditions: 1000 nM
HIPK2 = experiment: KINOMEscan; format: binding; conditions: 1000 nM
PKMYT1 = experiment: KINOMEscan; format: binding; conditions: 1000 nM
PAK7 = experiment: KINOMEscan; format: binding; conditions: 1000 nM
ERN1 = experiment: KINOMEscan; format: binding; conditions: 1000 nM
FLT3(D835V) = experiment: KINOMEscan; format: binding; conditions: 1000 nM
MET = experiment: KINOMEscan; format: binding; conditions: 1000 nM
BTK = molecular target: T1, BTK (Homo sapiens, UniProt Q06187); experiment: target-engagement assay with biotinylated probe CHMFL-BTK-85B in REC-1 cell; format: binding; conditions: 2 h, 1 μM
T1 construct: purchased Invitrogen (Carlsbad, CA, USA)
Method: Cell lysates from REC-1 cells were treated with different concentrations of covalent inhibitor CHMFL-BTK-85 on ice for 2 hours. 1 µM biotinylated covalent probe (CHMFL-BTK-85B) was then added and lysates were incubated for another 2 hours. Uninhibited BTK was then captured by adding 50 µl Streptavidin agarose resin suspensions (Pierce) followed by an incubation for 1 hour. The resin was then spun down, washed briefly with 1X PBS buffer, and then resuspended in protein sample buffer for Western blot analysis.

[1] = system: EGFR(L747-E749del, A750P); experiment: KINOMEscan; format: binding; conditions: 1000 nM
EGFR(L858R) = experiment: KINOMEscan; format: binding; conditions: 1000 nM
FER = experiment: KINOMEscan; format: binding; conditions: 1000 nM
[2] = system: ABL1(F317L)-nonphosphorylated; experiment: KINOMEscan; format: binding; conditions: 1000 nM
ARK5 = experiment: KINOMEscan; format: binding; conditions: 1000 nM
RET = experiment: KINOMEscan; format: binding; conditions: 1000 nM
MEK3 = experiment: KINOMEscan; format: binding; conditions: 1000 nM
CSF1R-autoinhibited = experiment: KINOMEscan; format: binding; conditions: 1000 nM
WNK4 = experiment: KINOMEscan; format: binding; conditions: 1000 nM
[3] = system: RSK3(Kin.Dom.1-N-terminal); experiment: KINOMEscan; format: binding; conditions: 1000 nM
GRK1 = experiment: KINOMEscan; format: binding; conditions: 1000 nM
SK-OV-3 cells = experiment: NK-cell-mediated ADCC, LDH release cytotoxicity assay, Herceptin; format: cell-based, human
Method: The cytotoxicity of NK cells was measured using the CyQUANT™ LDH Cytotoxicity Assay Kit (Invitrogen™, #C20300) according to the manufacturer’s instructions. Briefly, enriched NK cells (6 × 10^5 /ml) were cultured with the same volume of Mino cell and SK-OV-3 cell (1-2 × 10^4 /ml) in a 96-well plate for 4 h with Rituximab and Herceptin (10 μg/mL) and CHMFL-BTK-85 or PCI32765 at 37°C in a humidified CO2 incubator prior to removal of the supernatant for lactate dehydrogenase (LDH) release measurements. Calculate % Cytotoxicity by using the following formula: %Cytotoxicity = (Compound-treated LDH activity-Spontaneous LDH activity)/(Maximum LDH activity-Spontaneous LDH activity)*100.

CAMK1B = experiment: KINOMEscan; format: binding; conditions: 1000 nM
CDK4 = experiment: KINOMEscan; format: binding; conditions: 1000 nM
MAP4K5 = experiment: KINOMEscan; format: binding; conditions: 1000 nM
IRAK1 = experiment: KINOMEscan; format: binding; conditions: 1000 nM
PKAC-beta = experiment: KINOMEscan; format: binding; conditions: 1000 nM
EPHB4 = experiment: KINOMEscan; format: binding; conditions: 1000 nM
FLT3(D835Y) = experiment: KINOMEscan; format: binding; conditions: 1000 nM
[4] = system: NK cells co-seeded with SK-OV-3 cells; experiment: IFN-γ secretion ELISA, NK cells co-cultured with SK-OV-3 cells in presence of Herceptin; format: cell-based, human; conditions: SK-OV-3 co-culture; 0.1 to 3 μM
Method: Peripheral blood mononuclear cells (PBMC) were separated from the blood of healthy donors by Ficoll density gradient centrifugation (Histopaque-1077, Sigma-Aldrich). Cells were enriched using a MACS® human NK cell negative-selection isolation kit (Miltenyi Biotec, Germany) according to the manufacturer’s instructions. Purified NK cells were cultured with 1000U/ml IL2 for 48h. […] The concentrations of interferon (IFN)-γ in cell culture supernatants obtained from three independent experiments were detected using commercial ELISA kits (absin, #abs510007), according to the manufacturer’s instructions. The human IFN-γ kit sensitivity was 7.8 pg/ml.

MAST1 = experiment: KINOMEscan; format: binding; conditions: 1000 nM
GAK = experiment: KINOMEscan; format: binding; conditions: 1000 nM
CDK4-cyclinD3 = experiment: KINOMEscan; format: binding; conditions: 1000 nM
MRCKA = experiment: KINOMEscan; format: binding; conditions: 1000 nM
ICK = experiment: KINOMEscan; format: binding; conditions: 1000 nM
MAPKAPK5 = experiment: KINOMEscan; format: binding; conditions: 1000 nM
STK35 = experiment: KINOMEscan; format: binding; conditions: 1000 nM
TRKB = experiment: KINOMEscan; format: binding; conditions: 1000 nM
PKNB(M.tuberculosis) = experiment: KINOMEscan; format: binding; conditions: 1000 nM
NIK = experiment: KINOMEscan; format: binding; conditions: 1000 nM
EGFR(T790M) = experiment: KINOMEscan; format: binding; conditions: 1000 nM
LATS1 = experiment: KINOMEscan; format: binding; conditions: 1000 nM
PIM1 = experiment: KINOMEscan; format: binding; conditions: 1000 nM
PDPK1 = experiment: KINOMEscan; format: binding; conditions: 1000 nM
RIPK5 = experiment: KINOMEscan; format: binding; conditions: 1000 nM
AKT2 = experiment: KINOMEscan; format: binding; conditions: 1000 nM

T1 sequence (Q06187 whole entry): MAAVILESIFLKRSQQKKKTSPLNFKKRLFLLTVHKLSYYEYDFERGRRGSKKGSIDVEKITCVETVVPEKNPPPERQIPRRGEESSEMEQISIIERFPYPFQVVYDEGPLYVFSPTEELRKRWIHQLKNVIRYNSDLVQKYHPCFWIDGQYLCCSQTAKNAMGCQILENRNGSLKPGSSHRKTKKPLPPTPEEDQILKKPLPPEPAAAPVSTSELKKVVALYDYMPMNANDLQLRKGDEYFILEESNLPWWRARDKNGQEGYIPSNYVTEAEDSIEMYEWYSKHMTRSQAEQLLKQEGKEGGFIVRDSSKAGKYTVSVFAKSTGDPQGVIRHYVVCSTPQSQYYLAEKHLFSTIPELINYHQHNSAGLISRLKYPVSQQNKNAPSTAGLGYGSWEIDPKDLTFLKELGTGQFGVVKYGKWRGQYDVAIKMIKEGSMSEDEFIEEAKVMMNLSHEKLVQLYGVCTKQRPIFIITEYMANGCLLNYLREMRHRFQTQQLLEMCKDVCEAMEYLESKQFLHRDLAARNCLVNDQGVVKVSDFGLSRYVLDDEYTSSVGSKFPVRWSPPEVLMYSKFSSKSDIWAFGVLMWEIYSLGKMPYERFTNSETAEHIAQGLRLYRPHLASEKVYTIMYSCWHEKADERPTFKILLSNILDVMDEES

Compound: C=CC(=O)Nc1cc(Nc2cc(-c3cccc(NC(=O)c4cc5c(s4)CCCC5)c3C)cn(C)c2=O)ccc1N1CCN(CC)CC1 [CHMFL-BTK-85]
- Percent Control (SGK): 100%
- Percent Control (FGR): 20%
- Percent Control (AMPK-alpha1): 100%
- Percent Control (LZK): 100%
- Percent Control (PIK3C2G): 63%
- Percent Control (FLT4): 97%
- Percent Control (HIPK2): 100%
- Percent Control (PKMYT1): 63%
- Percent Control (PAK7): 82%
- Percent Control (ERN1): 100%
- Percent Control (FLT3(D835V)): 11%
- Percent Control (MET): 62%
- covalent labelling of BTK in competition with CHMFL-BTK-85B (BTK): almost completely covalently label all of the available BTK
- Percent Control [1]: 57%
- Percent Control (EGFR(L858R)): 59%
- Percent Control (FER): 83%
- Percent Control [2]: 100%
- Percent Control (ARK5): 97%
- Percent Control (RET): 100%
- Percent Control (MEK3): 100%
- Percent Control (CSF1R-autoinhibited): 100%
- Percent Control (WNK4): 82%
- Percent Control [3]: 85%
- Percent Control (GRK1): 84%
- effect on antibody-dependent NK-cell-mediated cytotoxicity (ADCC) (SK-OV-3 cells): did not affect
- Percent Control (CAMK1B): 100%
- Percent Control (CDK4): 100%
- Percent Control (MAP4K5): 100%
- Percent Control (IRAK1): 100%
- Percent Control (PKAC-beta): 80%
- Percent Control (EPHB4): 67%
- Percent Control (FLT3(D835Y)): 100%
- inhibition of Herceptin-induced IFN-γ secretion in NK cells [4]: no apparent inhibition
- Percent Control (MAST1): 100%
- Percent Control (GAK): 100%
- Percent Control (CDK4-cyclinD3): 88%
- Percent Control (MRCKA): 100%
- Percent Control (ICK): 100%
- Percent Control (MAPKAPK5): 100%
- Percent Control (STK35): 100%
- Percent Control (TRKB): 100%
- Percent Control (PKNB(M.tuberculosis)): 88%
- Percent Control (NIK): 100%
- Percent Control (EGFR(T790M)): 98%
- Percent Control (LATS1): 100%
- Percent Control (PIM1): 95%
- Percent Control (PDPK1): 77%
- Percent Control (RIPK5): 98%
- Percent Control (AKT2): 88%
